Laboratory results: patent US20240374546A1, “USES AND METHODS FOR PROMOTING INCREASED MITOCHONDRIAL MASS AND FUNCTION” (Brightseed, Inc., priority 2022, published 2024)
Entries after “also recorded” stand apart in the source; their conditions may differ. Like-named read-outs stand apart in the source and are kept apart here.

What was measured:
[1] = system: PPARGC1A mRNA; test: qPCR mouse liver, PPARGC1A mRNA; format: in vivo; details: ten weeks of oral NCT
Procedure: (§1) Total RNA was isolated from liver tissues and primary human hepatocytes using Trizol (Invitrogen). cDNA was amplified using 3 μg of total RNA using qScript cDNA SuperMix (Quanta BioSciences, Beverly, MA, USA). Quantitative real time PCR (RT-PCR) analysis was performed using SYBR® Select Master Mix (Applied Biosystems) and an ABI 7900HT thermal cycler (Applied Biosystems, Thermo Fisher Scientific). Ct values were normalized to 18s rRNA and are expressed as fold change over samples from mice fed NC or cultured human hepatocytes without NCT.

[2] = system: cytochrome C mRNA; test: qPCR primary human hepatocytes, cytochrome C mRNA; format: cell-based; details: NCT 5, 15, 40 μM
Procedure: (§2) Experiments with primary human hepatocytes were performed by CN-Bio (Cambridge, UK). Briefly, primary human hepatocytes (PHHs), human Kupffer cells (HKs) and human stellate cells (HSCs) were seeded onto CN-Bio's PhysioMimix LC12 MPS culture plates at 6×10^5 cells for PHHs and 6×10^4 cells for HKs and HSCs in 1.6 ml of CN-Bio's HEP-lean media with 5% FCS. Throughout the experiment the cells were maintained at a flow rate of 1 μl/s. After 24 hours (Day 1) of seeding, the media was changed to HEP-lean media and the cells were incubated until day 4 to allow the cells to form microtissues. At day 4 post seeding, media was changed to HEP-fat media and treated with DMSO or NCT (5, 15, 40 μM). Media was replaced on days 6 and 8. Cells were harvested on day 10 for RNA extraction and culture media was collected for ELISA analysis.
as §1

[3] = Oil red O staining of liver sections; format: in vivo, mouse; details: HFD+NCT vs HFD, 10 weeks
Procedure: Oil red O staining was performed as described previously (34). Slides containing frozen liver tissue sections from mice were air dried for 10-20 min followed by rehydration in distilled water. Sections were immersed in absolute propylene glycol (Cat #151957, MP Biomedicals, LLC, USA) for 2 min followed by 0.5% in Oil red O solution (Cat #K043, Poly Scientific R&D, USA) for 2 hours. Slides were then differentiated in 85% propylene glycol solution, washed with dH2O for 2 hours, and mounted using glycerin jelly mounting medium. All slides were scanned at a magnification of 20× using the Aperio Scanscope FL system (Aperio Technologies Inc., Vista, CA, USA). The liver area stained with oil red O was measured using image J software as described, with some modifications as follow, Oil red O-stained liver images were opened in Image J software. Using the Analyze>Set Scale command, the scale bar of the images was set to 200 um. RGB images were then converted into gray scale images using the Image>Type>RGB Stack command and were split into red, blue and green channels. Using the Image >Adjust>Threshold command, the threshold was manually set to highlight the Oil red O stained lipid droplets in the green channel. […] Fold change was calculated by normalizing the values to images from mice fed normal chow.

[4] = previous two-week IP administration, obese mice; cited from earlier work
[5] = Liver profile analysis of blood (VetScan); format: in vivo, mouse
Procedure: Mice were anesthetized and 100 μL of whole blood was collected via retro-orbital bleeding in lithium heparin blood collection tubes and transferred to single use VetScan mammalian liver profile reagent rotors. The levels of multiple analytes, including Alkaline Phosphatase (ALP), Alanine Aminotransferase (ALT), Gamma Glutamyl Transferase (GGT), Bile Acids (BA), TBIL (Total Bilirubin), Albumin (ALB), Blood Urea Nitrogen […] (BUN), Total Cholesterol (CHOL) were quantified using a VetScan VS2 Chemistry Analyzer (Abaxis North America, USA).

[6] = molecular target: T1, HNF4α (Homo sapiens, UniProt P41235); test: Cell-based human insulin promoter reporter assay sensitive to HNF4α activity
T1 sequence (P41235 1-474): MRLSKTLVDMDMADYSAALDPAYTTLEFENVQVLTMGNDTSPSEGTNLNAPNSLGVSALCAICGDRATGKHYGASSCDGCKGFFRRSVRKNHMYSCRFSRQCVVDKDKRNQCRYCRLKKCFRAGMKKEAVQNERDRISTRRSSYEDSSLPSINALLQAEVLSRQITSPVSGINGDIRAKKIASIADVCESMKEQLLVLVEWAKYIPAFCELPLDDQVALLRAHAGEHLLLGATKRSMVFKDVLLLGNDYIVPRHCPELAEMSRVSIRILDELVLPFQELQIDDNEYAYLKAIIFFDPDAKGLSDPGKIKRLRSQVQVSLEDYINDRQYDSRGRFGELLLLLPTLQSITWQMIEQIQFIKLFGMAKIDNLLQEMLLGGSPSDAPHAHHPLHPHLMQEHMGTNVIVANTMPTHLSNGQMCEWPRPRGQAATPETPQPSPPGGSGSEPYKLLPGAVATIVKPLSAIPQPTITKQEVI
Description: HNF4α is a nuclear receptor transcription factor that controls the expression of downstream genes that are important in multiple aspects of cellular metabolism. The classical view of HNF4α has been that its ligand binding pocket (LBP) is constitutively occupied by a fatty acid that plays a structural rather than regulatory role. However, it has been shown recently that the fatty acids in the HNF4α LBP are exchangeable in the context of full length HNF4α, particularly inside the cell. […] Using the assay in high-throughput screening, it was discovered HNF4α antagonists and more recently agonists. […] Previously, it was shown that intraperitoneal (IP) administration of NCT reversed hepatic steatosis in obese mice fed a high fat diet through a previously unsuspected pathway involving regulation by HNF4α of dihydroceramide synthesis.

[7] = system: Sirt1 mRNA; test: qPCR mouse liver, Sirtuin1 mRNA; format: in vivo; details: HFD+NCT vs HFD
Procedure: as §1

[8] = system: TNFα mRNA; test: qPCR mouse liver, TNFα mRNA; format: in vivo; details: HFD+NCT vs HFD
Procedure: as §1

[9] = system: IL-6; test: ELISA for IL-6 secreted into medium of primary human hepatocytes; format: cell-based; details: NCT 5, 15, 40 μM
Procedure: as §2

[10] = system: Parp1 mRNA; test: qPCR mouse liver, Parp1 mRNA; format: in vivo; details: HFD+NCT vs HFD
Procedure: as §1

[11] = system: IL-1P mRNA; test: qPCR mouse liver, IL-1β mRNA; format: in vivo; details: HFD+NCT vs HFD
Procedure: as §1

[12] = system: total cellular NAD; test: Total NAD level in liver lysate; format: in vivo, mouse; details: HFD+NCT vs HFD
Procedure: Total NAD level in liver lysate was analyzed according to manufacturer's instructions using a calorimetric NAD+/NADH assay kit (Cat #MET-5014, Cell Biolabs, Inc. USA)

SMILES: O=C(/C=C/c1ccc(O)c(O)c1)NCCc1ccc(O)cc1 [NCT, N-transcaffeoyltyramine]
- PPARGC1A mRNA in mouse liver [1]: increased
- cytochrome C mRNA in primary human hepatocytes [2]: but not cytochrome C
- Oil Red O staining of liver [3]: decreased Oil Red O staining
- body weight [4]: no effect on body weight
- hepatic steatosis [4]: decreased hepatic steatosis
- other components of the liver profile panel ([5]; HFD versus HFD+NCT): no difference
- blood ALP ([5]; HFD+NCT vs HFD): unchanged
- blood ALT level ([5]; HFD+NCT vs HFD): reduced; also recorded: significantly decreased
- HNF4α agonist activity [6]: strong HNF4α agonists
- HNF4α agonist activity ([6]; listed as N-trans caffeoyltyramine): potent agonist
- Sirt1 mRNA in mouse liver (effect of HFD) [7]: almost completely reversed
- TNFα mRNA in mouse liver [8]: significantly reduced
- IL-6 protein secreted by cultured human hepatocytes [9]: reduced
- Parp1 mRNA level [10]: not modulated
- ILI p expression (FIG. 5C, mouse liver) [11]: not significantly changed
- total cellular NAD in liver [12]: substantial increase
